Patent US10905761B2, “Use of a lipopeptide or lipoprotein as an adjuvant in therapeutic or prophylactic vaccinations” (HELMHOLTZ-ZENTRUM FUER INFEKTIONSFORSCHUNG GMBH, priority 2002, dated 2021)

Tests used:
Assay type in all cases: in vivo
BALB/c (H-2d) mice [1] = tested on: BALB/c (H-2d) mice
BALB/c (H-2d) mice [2] = assay: Kinetics of β-gal-specific IgG responses in sera of mice immunized i.n. or i.p. (Example 4); conditions: pure β-galactosidase 50 μg/dose i.n.; after a second boost
Description: Groups of animals (n=5) were immunized either i.n. (A) or i.p. (B) with 50 μg of β-gal ( ), β-gal plus 10 μg of CTB ( ), β-gal plus 0.5 μg of MALP-2 ( ) or pure buffer solution ( ). The days of the immunizations (day 0, 14 and 21) are marked by arrows. The results are shown as the reciprocal log2 of the geometric endpoint titer, and the SEM […] is indicated by means of vertical lines.
Six- to eight-week old female BALB/c (H-2d) mice were purchased from Harlan Winkelmann GmbH (Borchen, Germany) and treated in accordance with local and EU directives. Groups each of 5 mice were immunized on day 1, 14 and 21 either with 40 μg of pure β-galactosidase (Boehringer, Mannheim, Germany) with admixture of 0.5 μg of synthetic MALP-2 or 10 μg of cholera toxin B subunit (CTB; ICN Biomedicals Inc., Ohio) as standard adjuvant. For intranasal administration (i.n.), 10 μl were administered into each nostril, while for the i.p. injection β-galactosidase was resuspended with or without MALP-2 in 400, 100 or 100 μl of PBS. Serum samples were taken at various times (day 0, 13, 20 and 30) and stored at −20° C. until the β-galactosidase-specific antibodies were determined. Nunc-Immuno MaxiSorp assay plates with 96 wells (Nunc, Roskilde, Denmark) were coated with 100 μl of β-gal (Boehringer, Mannheim, Germany) with 5 μg/ml in 0.05 M […] (pH 8.2) per well. Serial two-fold dilutions of the sera or lavages in PBS with 1% BSA and 0.05% Tween-20 were added (100 μl/well) and the plates were incubated at 37° C. for 24 hours. After rinsing, biotinylated γ chain-specific goat anti-mouse IgG (Sigma Chemie, Deisenhofen, Germany) was added, and the plates were incubated at 37° C. for a further hour. After rinsing four times, 100 μl of peroxidase-conjugated streptavidin (Pharmingen) were added to the […], and the plates were incubated at 37° C. for 30 minutes. After rinsing four times, the reactions were developed by means of ABTS in 0.1 M citrate-phosphate buffer (pH 4.35) which contained 0.01% H2O2.

BALB/c (H-2d) mice [3] = assay: β-Galactosidase-specific T-cell proliferation of spleen and regional lymph node cells of immunized mice (Example 7); conditions: day 31
Description: The cells were restimulated in vitro with various concentrations of soluble β-galactosidase for four days. The results are shown as average cpm subtracted from the background values for unstimulated cells from groups of three. The SEM is depicted by vertical lines.
Lymph nodes located below the lower jaw and the spleens were removed and put together for the analysis of the cellular immune responses. The cells were grown in RPMI 1640 supplemented by 10% fetal calf serum, 10 U/ml penicillin, 50 μg/ml streptomycin, 5×10^−5 M 2-mercaptoethanol and 1 mM L-glutamine (GIBCO BRL, Karlsruhe, Germany) and stored at 37° C. in a moist atmosphere with 5% CO2. The suspensions of lymph node and spleen cells were adjusted to 5×10^6 cells/ml in complete medium and put in a flat-bottomed 96-well microtiter plate (Nunc) with 100 μl/well, and the plates were incubated in the presence of various concentrations of soluble β-galactosidase for 4 days. Each concentration was tested in groups of three. During the last 18 hours of the incubation, 1 ρCi of [^3H]thymidine (Amersham International, Freiburg, Germany) was added to each well. The cells were then harvested on filter paper (Filtermat A; Wallac, Freiburg, Germany) using a cell harvester (Inotech, Wohlen, Switzerland), and the amount of incorporated [^3H]thymidine in the DNA of the proliferated cells was determined with the aid of a […] (Wallac 1450, Micro-Trilux). The results have been shown as the arithmetic mean of the uptake of [^3H]thymidine in cpm.

BALB/c (H-2d) mice [4] = assay: β-Galactosidase-specific IgG isotypes in the serum of immunized mice (ELISA, Example 8); conditions: average ± SEM, 5 mice per group
BALB/c (H-2d) mice [5] = assay: β-Galactosidase-specific IgA in lung and vaginal lavages of mice immunized i.n. (Example 5); conditions: i.n. immunization; day 31
Description: The results are shown as percentage of β-galactosidase-specific IgA in relation to the total IgA present. The SEM is indicated by vertical lines.
The mice were sacrificed on day 31, and the final samples were taken. Vaginal and lung lavages were obtained by rinsing the organs with 1 ml of PBS supplemented by 50 mM EDTA, 0.1% BSA and 10 mM PMSF. The lavages were then centrifuged in order to remove tissue detritus (10 min at 3000×g) and the remaining liquid was stored at −20° C. In order to determine the total IgA concentration in the rinsings from lung and vagina, serial dilutions of the corresponding samples were incubated in microtiter plates, these plates having previously been coated with goat anti-mouse IgA (Sigma Chemie) as capture antibody (100 μl/well). Serial dilutions of purified mouse IgA (Sigma Chemie) were used to produce a standard plot.

[6] = mice immunized i.p. with pure β-galactosidase

Substance | IL-10 content in supernatants of spleen cells stimulated in vitro (BALB/c (H-2d) mice [1]; mice immunized i.n., β-gal restimulation) [ng/mL] | β-galactosidase-specific antibody endpoint titer in serum (BALB/c (H-2d) mice [2]) | proliferation of lymph node and spleen cells after in vitro restimulation with β-galactosidase (BALB/c (H-2d) mice [3]; i.n. immunization) | proliferation of spleen cells after in vitro restimulation with β-galactosidase (BALB/c (H-2d) mice [3]; i.p. immunization) | β-Galactosidase-specific IgG1 in serum (BALB/c (H-2d) mice [4]; i.n.) [µg/mL] | β-Galactosidase-specific IgG2a in serum (BALB/c (H-2d) mice [4]; i.n.) [µg/mL] | β-Galactosidase-specific IgG2b in serum (BALB/c (H-2d) mice [4]; i.n.) [µg/mL] | β-Galactosidase-specific IgG3 in serum (BALB/c (H-2d) mice [4]; i.n.) [µg/mL] | β-Galactosidase-specific IgG1 in serum (BALB/c (H-2d) mice [4]; i.p.) [µg/mL] | β-Galactosidase-specific IgG2a in serum (BALB/c (H-2d) mice [4]; i.p.) [µg/mL] | β-Galactosidase-specific IgG2b in serum (BALB/c (H-2d) mice [4]; i.p.) [µg/mL] | β-Galactosidase-specific IgG3 in serum (BALB/c (H-2d) mice [4]; i.p.) [µg/mL] | β-galactosidase-specific IgA in lung rinsings (BALB/c (H-2d) mice [5]) | Th1 cytokines IL-2 and IFN-γ secreted by restimulated cells (BALB/c (H-2d) mice [1]; [6]) | secretion of IL-10 and IL-4 by restimulated cells (BALB/c (H-2d) mice [1]; [6])
CTB [reference compound] | 0.6 |  |  |  |  |  |  |  |  |  |  |  |  |  | 
β-gal: model antigen β-galactosidase administered pure, without adjuvant |  | about 1000 | no detectable cell proliferation | significant proliferation response | 22.6 ± 21.3 | 0.7 ± 0.5 | 0.3 ± 0.1 | 0.6 ± 0.0 | 191.5 ± 132.1 | 0.1 ± 0.0 | 0.5 ± 0.1 | 0.6 ± 0.0 | no production of β-galactosidase-specific IgA in detectable quantity | below the limit of detection | stimulated
